In experiment [1] the test system is HEK293. Briefly: cells. The note with it: Homo sapiens.
Experiment [2] addresses T1, DNA repair protein RAD52 homolog (Homo sapiens, UniProt P43351).
T1 sequence (P43351 whole entry): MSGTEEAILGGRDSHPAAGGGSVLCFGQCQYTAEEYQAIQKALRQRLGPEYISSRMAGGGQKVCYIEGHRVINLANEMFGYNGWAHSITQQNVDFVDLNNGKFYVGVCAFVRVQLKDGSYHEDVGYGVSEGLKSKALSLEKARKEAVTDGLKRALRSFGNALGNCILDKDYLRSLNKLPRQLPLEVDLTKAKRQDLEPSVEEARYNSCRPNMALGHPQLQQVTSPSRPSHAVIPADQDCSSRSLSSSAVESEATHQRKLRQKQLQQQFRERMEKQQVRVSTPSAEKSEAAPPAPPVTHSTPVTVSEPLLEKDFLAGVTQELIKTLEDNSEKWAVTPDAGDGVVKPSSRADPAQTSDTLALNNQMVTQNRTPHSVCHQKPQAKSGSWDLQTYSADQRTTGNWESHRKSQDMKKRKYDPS
The format is functional, biochemical.

Experiment [3] in a line: reduction of Shn3 3'UTR-driven luciferase in osteoblasts – cell-based, Clone20 osteoblasts, firefly luciferase, cherry-picked, dose response (AID 624132).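 Further: firefly luciferase luminescence from reporter carrying the Shn3 3'UTR in osteoblasts.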 The format is functional.
Experiment [4] in a line: loss of viability in HepG2 cells – cell-based, CellTiter-Glo, cherry-picked, cytotoxicity control for Shn3 inhibitor project, dose response (AID 624134). In kind it is functional. For orientation: ATP-based viability assays read luminescence as a measure of living cells.
For experiment [5], the system named is HEK293. Briefly: cells. The following applies: Homo sapiens. This is another data set of the same source.
Experiment [6] can be described thus: non-specific 3'UTR reporter inhibition in Clone20-Shn3RL – cell-based, Renilla luciferase, cherry-picked, counter-screen for Shn3 inhibitor project, dose response (AID 624133). The format is functional. Background: Counterscreens check selectivity or assay interference.
In experiment [7] the target is T2, Calpain-2 catalytic subunit (Sus scrofa, UniProt P43367).
T2 sequence (P43367 whole entry): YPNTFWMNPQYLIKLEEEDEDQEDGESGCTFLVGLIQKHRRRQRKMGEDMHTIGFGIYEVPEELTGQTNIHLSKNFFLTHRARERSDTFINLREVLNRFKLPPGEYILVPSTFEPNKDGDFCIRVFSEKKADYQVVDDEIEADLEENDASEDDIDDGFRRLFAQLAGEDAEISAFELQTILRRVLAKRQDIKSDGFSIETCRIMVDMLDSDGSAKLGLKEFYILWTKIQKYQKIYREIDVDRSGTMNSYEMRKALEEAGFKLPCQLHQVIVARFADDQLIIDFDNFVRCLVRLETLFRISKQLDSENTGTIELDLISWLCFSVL
Briefly: m-calpain protease blockers, concentration series – biochemical, fluorogenic peptide substrate, dose response (AID 1420). The format is functional.

Experiment [8] has as its target T3, Coagulation factor XII (Homo sapiens, UniProt P00748).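 Further: activated factor XIIa alpha cleaving a fluorogenic AMC peptide substrate; inhibitor potency from loss of enzyme activity.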
T3 sequence (P00748 whole entry): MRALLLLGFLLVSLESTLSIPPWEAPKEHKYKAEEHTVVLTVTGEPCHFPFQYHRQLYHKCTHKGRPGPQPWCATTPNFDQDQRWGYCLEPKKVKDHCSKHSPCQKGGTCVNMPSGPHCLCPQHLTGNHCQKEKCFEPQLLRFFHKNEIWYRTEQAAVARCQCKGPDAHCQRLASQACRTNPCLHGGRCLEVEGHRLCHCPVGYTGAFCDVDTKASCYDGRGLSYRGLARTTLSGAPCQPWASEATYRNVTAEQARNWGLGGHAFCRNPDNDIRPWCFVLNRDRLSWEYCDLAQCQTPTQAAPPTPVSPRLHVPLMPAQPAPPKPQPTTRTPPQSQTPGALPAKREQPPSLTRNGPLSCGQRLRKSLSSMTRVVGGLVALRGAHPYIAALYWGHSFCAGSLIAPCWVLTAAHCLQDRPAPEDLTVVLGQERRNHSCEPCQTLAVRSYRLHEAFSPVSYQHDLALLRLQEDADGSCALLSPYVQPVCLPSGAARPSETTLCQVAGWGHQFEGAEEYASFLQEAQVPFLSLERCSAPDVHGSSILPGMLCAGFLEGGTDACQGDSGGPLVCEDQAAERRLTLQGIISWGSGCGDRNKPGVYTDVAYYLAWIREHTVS
The format is functional.

Experiment [9] addresses Troponin, cardiac muscle (Homo sapiens, UniProt P19429+P45379+P63316). Briefly: Fluorescence-based biochemical high throughput dose response assay for activators of the calcium sensitivity of cardiac Regulated Thin Filaments (RTF). [Related pubchem assays (depositor defined):AID493008, AID493018, AID504382, AID504383]. The format is protein-complex assay.
Experiment [10] concerns H9c2. As to the kind of experiment: cells. In kind it is functional, cell-based. The note with it: Rattus norvegicus, H9c2, Myocardium.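 Further: confirmatory concentration-response retest of ultra-high-throughput screening hits for modulation of myocardial damage; cell death induced by hydrogen peroxide oxidative stress; compound pretreatment for 60 min then peroxide exposure for 2 h; potency is for protecting the cells against peroxide damage rather than for killing them.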
Experiment [11] can be described thus: Counterscreen for AddAB inhibitors: absorbance-based bacterial cell-based high throughput dose response assay for inhibitors of bacterial viability. [Related pubchem assays (depositor defined):AID435030, AID449728, AID449731, AID488942, AID488955, AID488956]. The format is functional.
Experiment [12] deals with T4, Exodeoxyribonuclease V (Escherichia coli (strain K12), UniProt P04993+P07648+P08394).
T4 sequence (P04993 whole entry): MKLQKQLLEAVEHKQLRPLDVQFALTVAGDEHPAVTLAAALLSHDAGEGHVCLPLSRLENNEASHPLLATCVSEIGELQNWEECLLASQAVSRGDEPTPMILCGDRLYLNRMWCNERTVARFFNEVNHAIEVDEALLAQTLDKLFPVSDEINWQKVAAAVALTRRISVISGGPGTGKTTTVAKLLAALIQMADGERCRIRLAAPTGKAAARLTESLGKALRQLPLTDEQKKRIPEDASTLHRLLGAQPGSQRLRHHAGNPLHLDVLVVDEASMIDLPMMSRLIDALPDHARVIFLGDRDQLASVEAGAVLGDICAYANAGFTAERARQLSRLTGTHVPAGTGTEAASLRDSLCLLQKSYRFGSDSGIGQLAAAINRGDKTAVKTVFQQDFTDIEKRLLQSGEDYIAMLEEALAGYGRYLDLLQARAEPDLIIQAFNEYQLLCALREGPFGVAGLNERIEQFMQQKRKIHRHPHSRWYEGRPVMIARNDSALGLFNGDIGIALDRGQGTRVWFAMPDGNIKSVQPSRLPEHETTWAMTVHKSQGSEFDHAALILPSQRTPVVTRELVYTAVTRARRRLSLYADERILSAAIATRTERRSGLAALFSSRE
T4 sequence (P07648 whole entry): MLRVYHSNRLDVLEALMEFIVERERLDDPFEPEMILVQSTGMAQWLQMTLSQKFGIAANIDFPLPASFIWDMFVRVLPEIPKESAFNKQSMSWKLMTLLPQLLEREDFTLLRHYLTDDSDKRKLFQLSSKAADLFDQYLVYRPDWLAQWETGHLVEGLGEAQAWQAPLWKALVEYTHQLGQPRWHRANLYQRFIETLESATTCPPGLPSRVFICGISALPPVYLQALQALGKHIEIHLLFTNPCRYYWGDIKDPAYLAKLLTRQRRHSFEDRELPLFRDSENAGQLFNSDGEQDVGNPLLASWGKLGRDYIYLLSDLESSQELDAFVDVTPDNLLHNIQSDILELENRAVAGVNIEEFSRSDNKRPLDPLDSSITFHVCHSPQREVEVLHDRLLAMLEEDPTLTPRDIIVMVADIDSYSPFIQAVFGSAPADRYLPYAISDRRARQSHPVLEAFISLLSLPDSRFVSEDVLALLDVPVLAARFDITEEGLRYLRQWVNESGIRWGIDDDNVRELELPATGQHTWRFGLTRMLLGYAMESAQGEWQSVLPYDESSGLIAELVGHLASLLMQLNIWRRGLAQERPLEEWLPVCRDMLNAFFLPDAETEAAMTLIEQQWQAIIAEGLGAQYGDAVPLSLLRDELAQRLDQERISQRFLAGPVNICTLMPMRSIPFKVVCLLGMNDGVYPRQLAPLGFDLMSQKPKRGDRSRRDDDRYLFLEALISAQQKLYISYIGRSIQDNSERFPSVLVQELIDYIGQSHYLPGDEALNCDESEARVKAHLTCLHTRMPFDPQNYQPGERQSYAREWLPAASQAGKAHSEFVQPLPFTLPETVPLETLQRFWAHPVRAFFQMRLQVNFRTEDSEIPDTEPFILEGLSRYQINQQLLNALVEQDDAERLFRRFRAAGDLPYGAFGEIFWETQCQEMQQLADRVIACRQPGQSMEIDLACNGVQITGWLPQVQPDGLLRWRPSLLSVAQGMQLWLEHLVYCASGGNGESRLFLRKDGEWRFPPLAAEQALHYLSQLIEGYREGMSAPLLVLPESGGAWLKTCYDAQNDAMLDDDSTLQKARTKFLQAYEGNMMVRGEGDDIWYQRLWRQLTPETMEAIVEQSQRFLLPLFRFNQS
T4 sequence (P08394 whole entry): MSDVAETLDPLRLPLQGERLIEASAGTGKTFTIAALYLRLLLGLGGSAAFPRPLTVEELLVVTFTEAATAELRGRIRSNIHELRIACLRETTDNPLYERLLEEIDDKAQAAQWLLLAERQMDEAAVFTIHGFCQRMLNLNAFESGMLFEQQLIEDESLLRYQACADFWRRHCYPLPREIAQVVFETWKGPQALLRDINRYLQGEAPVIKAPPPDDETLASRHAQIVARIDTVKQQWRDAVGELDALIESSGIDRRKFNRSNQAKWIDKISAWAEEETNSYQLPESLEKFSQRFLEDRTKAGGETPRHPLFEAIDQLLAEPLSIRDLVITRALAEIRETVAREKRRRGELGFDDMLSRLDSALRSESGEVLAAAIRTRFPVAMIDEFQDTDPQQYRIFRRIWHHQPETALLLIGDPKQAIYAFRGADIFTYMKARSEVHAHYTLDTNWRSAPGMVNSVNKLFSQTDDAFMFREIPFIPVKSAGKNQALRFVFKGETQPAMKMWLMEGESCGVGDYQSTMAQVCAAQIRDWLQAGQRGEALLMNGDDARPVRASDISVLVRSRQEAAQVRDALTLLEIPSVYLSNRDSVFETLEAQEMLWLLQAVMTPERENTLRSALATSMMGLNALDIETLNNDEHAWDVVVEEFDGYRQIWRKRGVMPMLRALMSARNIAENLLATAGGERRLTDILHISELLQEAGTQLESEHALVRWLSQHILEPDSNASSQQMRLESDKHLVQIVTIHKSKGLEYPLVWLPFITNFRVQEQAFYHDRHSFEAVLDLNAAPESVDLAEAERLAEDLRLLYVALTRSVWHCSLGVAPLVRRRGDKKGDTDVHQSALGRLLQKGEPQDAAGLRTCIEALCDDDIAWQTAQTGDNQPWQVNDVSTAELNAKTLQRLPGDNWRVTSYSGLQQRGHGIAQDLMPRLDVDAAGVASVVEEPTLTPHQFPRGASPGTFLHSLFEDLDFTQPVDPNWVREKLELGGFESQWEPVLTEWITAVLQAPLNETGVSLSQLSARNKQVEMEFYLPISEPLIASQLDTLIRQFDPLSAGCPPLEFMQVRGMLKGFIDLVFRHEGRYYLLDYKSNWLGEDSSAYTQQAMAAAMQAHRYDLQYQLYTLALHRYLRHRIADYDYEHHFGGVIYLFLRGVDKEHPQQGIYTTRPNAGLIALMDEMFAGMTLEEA
As to the kind of experiment: RecBCD inhibition via phage-restricted bacterial growth – absorbance, V66 E. coli, mutant T4 phage, counter-screen for AddAB inhibitor project, dose response (AID 492957). The format is functional, cell-based, Escherichia coli str. K-12 substr. MG1655.

Experiment [13] deals with T5, Heat shock factor protein 1 (Mus musculus, UniProt P38532).
T5 sequence (P38532 whole entry): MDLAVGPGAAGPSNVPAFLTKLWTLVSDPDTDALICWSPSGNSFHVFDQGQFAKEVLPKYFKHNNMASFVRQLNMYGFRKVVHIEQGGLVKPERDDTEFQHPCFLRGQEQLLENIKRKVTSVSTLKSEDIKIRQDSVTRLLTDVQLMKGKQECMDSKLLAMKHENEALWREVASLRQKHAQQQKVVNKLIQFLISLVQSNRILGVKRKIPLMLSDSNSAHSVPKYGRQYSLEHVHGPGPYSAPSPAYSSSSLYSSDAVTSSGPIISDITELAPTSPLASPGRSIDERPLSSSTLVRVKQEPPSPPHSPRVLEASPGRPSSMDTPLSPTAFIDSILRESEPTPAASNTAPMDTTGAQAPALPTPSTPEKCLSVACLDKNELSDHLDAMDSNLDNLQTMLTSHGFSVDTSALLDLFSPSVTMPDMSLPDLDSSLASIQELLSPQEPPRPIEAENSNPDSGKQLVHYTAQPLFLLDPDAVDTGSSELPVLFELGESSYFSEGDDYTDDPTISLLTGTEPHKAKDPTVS
As to the kind of experiment: decrease of HSF1-responsive luciferase luminescence – cell-based, NIH3T3, dose retest, confirmation (AID 2382).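 Further: NIH3T3 fibroblasts with HSF1-driven luciferase reporter stressed by proteasome inhibitor MG132; luminescence from HSF1-driven luciferase expression after 8 hours of MG132 stress.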 The format is functional.

The source made the active and inactive calls. A value given as a limit tells only on which side of the number the result lay.

The record followed here is ChEMBL document CHEMBL1201862, “PubChem BioAssay data set” (2004).

One may read the EC50 as the midpoint of the concentration-response curve. What is called AC50 is the concentration at which the activity in the assay is half-maximal. As a reminder, the IC50 is the concentration that gives 50% inhibition.

With `CN(C)CCNC(=O)c1cccc2nc3cccc(F)c3nc12`, the EC50 in [1] and in [5] was > 59.6 µM (inactive) each time. In addition, the half-maximal activity concentration (AC50) in [2] was 4.63 µM (active); in [3], 13.7 µM (active); in [4] it was 4.69 µM (active); in experiment [6] it was 23.8 µM (active).

With `O=C(c1ccc(N2CCCC2=O)cc1)N1CCCCCC1`, the IC50 in [7] is 6.62 µM (not active); in experiment [8], > 50 µM (inactive).

`S=C(Nc1ccc(N2CCOCC2)cc1)Nc1ccc2nc(-c3ccco3)c(-c3ccco3)nc2c1`: the 50% effective concentration (EC50) in experiment [9] was 2.92 µM (active). Moreover, in experiment [10], the IC50 is > 79 µM (inactive).

Take `CC(=O)c1ccc(NC(S)=NC(NC(=O)c2ccco2)C(Cl)(Cl)Cl)cc1` (stereo not drawn): the IC50 in [11] and in experiment [12] was > 119 µM (inactive) in each case.

Take `CC1Cc2ccccc2N1S(=O)(=O)c1cccc2nsnc12` (stereo not drawn): the IC50 in [8] was > 50 µM (inactive).

`Cc1ccc(C(=O)Nc2ccc3c(c2)ncn3C)cc1`: the EC50 in [9] was > 71.4 µM (inactive).

As to `CCN(CC)S(=O)(=O)c1cc(NC(=O)CSCc2c(C)noc2C)ccc1C`, the EC50 in [1] and in experiment [5] was > 59.6 µM (inactive) each time.

Consider `COc1ccc(CNC(=O)c2sc(=S)n(-c3ccccc3)c2N)cc1`, for which the EC50 in experiment [9] was > 71.5 µM (inactive); in [13], > 195 µM (not active).
